In this assay the target is STING (Homo sapiens, UniProt Q86WV6, G230A/H232R/R293Q/R71H). The assay is described as follows: STING reporter assay in THP1-Dual KO-IFNAR2 cells (2′3′cGAMP stimulation, luciferase reporter). The following applies: 15 μM 2′3′cGAMP stimulation, 24 h, read-out: Pharmaron, THP1_IFNAR2 STING 24 h Luci Normalized: GeoMean EC50. The assay is classed as cell-based. The gist of the method:
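THP1-Dual KO-IFNAR2 cells (2×10E6 cells/mL) with compounds at 0.0017-100 μM final, stimulated with 15 μM final 2′3′cGAMP delivered by Lipofectamine 2000; 24 h at 37 °C. Luciferase in supernatant read with QUANTI-Luc Plus; EC50 derived from luminescence.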
Chain of STING (Q86WV6 whole entry R71H/G230A/H232R/R293Q): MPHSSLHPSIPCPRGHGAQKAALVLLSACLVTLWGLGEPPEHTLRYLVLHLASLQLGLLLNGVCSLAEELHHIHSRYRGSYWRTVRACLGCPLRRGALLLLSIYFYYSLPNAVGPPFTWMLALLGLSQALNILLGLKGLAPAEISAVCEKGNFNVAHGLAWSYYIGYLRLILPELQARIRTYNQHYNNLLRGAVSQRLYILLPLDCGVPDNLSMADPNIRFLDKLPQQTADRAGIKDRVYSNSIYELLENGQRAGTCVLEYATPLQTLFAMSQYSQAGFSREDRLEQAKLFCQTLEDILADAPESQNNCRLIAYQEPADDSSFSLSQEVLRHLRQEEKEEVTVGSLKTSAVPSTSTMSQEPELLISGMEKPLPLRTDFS
With `CC(=O)Nc1c[nH]c2ccc(CCOc3ccccc3)cc12` [Compound 558, N-(5-(2-phenoxyethyl)-1H-indol-3-yl)acetamide], the concentration giving a half-maximal response (EC50) lay in the range of 200 to 1000 nM.

Consider `CC1(C(=O)Nc2c[nH]c3ccc(OCCc4ccc(C(F)(F)F)cc4)cc23)COC1` [Compound 238, 3-methyl-N-(5-(4-(trifluoromethyl)phenethoxy)-1H-indol-3-yl)oxetane-3-carboxamide], for which the EC50 lay within 40 to 200 nM. Regarding `CNC(Cc1ccc(C(F)(F)F)cc1)Cc1ccc2[nH]cc(NC(C)=O)c2c1` (stereo not drawn) [Compound 506, N-(5-(2-(methylamino)-3-(4-(trifluoromethyl)phenyl)propyl)-1H-indol-3-yl)acetamide], the concentration giving a half-maximal response (EC50) fell in the range of 5000 to 100000 nM. Regarding `O=C(Nc1c[nH]c2ccc(O[C@H]3C[C@@H](c4ccc(C(F)(F)F)cc4)C3)cc12)C1CC(F)(F)C1` [Compound 587, 3,3-difluoro-N-(5-(cis-3-(4-(trifluoromethyl)phenyl)cyclobutoxy)-1H-indol-3-yl)cyclobutane-1-carboxamide], the EC50 lay in the range of 40 to 200 nM. As for `O=C(Nc1c[nH]c2ccc(OCCc3ccc(C(F)(F)F)cc3)cc12)C1CCOCC1` [Compound 239, N-(5-(4-(trifluoromethyl)phenethoxy)-1H-indol-3-yl)tetrahydro-2H-pyran-4-carboxamide], the half-maximal effective concentration (EC50) lay within 40 to 200 nM. Regarding `O=C(Nc1c[nH]c2ccc(CC(O)Cc3ccc(C(F)(F)F)cc3)cc12)C1CC1` (stereo not drawn) [Compound 240, N-(5-(2-hydroxy-3-(4-(trifluoromethyl)phenyl)propyl)-1H-indol-3-yl)cyclopropanecarboxamide], the EC50 was in the range of 200 to 1000 nM. On to `CC(=O)Nc1c[nH]c2ccc(OCCc3ccc(C(F)(F)F)cc3)cc12` [Compound 136, N-(5-(4-(trifluoromethyl)phenethoxy)-1H-indol-3-yl)acetamide], for which the EC50 lay within 40 to 200 nM. Then `COCC1(C(=O)Nc2c[nH]c3ccc(OCCc4ccc(C(F)(F)F)cc4)cc23)CC1` [Compound 204, 1-(methoxymethyl)-N-(5-(4-(trifluoromethyl)phenethoxy)-1H-indol-3-yl)cyclopropane-1-carboxamide], with 40 to 200 nM; and `O=C(Nc1c[nH]c2ccc(CCOc3ccc(C(F)(F)F)nc3)cc12)C1CC1` [Compound 167, N-(5-(2-((6-(trifluoromethyl)pyridin-3-yl)oxy)ethyl)-1H-indol-3-yl)cyclopropanecarboxamide], with 200 to 1000 nM; and `COCCOCC(=O)Nc1c[nH]c2ccc(O[C@H]3C[C@H](c4ccc(C(F)(F)F)cc4)C3)cc12` [Compound 486, 2-(2-methoxyethoxy)-N-{5-[(1R,3R)-3-[4-(trifluoromethyl)phenyl]cyclobutoxy]-1H-indol-3-yl}acetamide], with 40 to 200 nM.

With `O=C(Nc1c[nH]c2ccc(OCCc3ccc(C(F)(F)F)cc3)cc12)C1CC(CO)C1` (stereo not drawn) [Compound 312, 3-(hydroxymethyl)-N-(5-(4-(trifluoromethyl)phenethoxy)-1H-indol-3-yl)cyclobutane-1-carboxamide], the EC50 lay in the range of 40 to 200 nM. For the molecule “3,3-dimethyl-N-(5-(2-((3aR,5r,6aS)-2-(2,2,2-trifluoroethyl)octahydrocyclopenta[c]pyrrol-5-yl)ethoxy)-1H-indol-3-yl)butanamide [Compound 339]”, the EC50 is 200 to 1000 nM. Take `CC(=O)Nc1c[nH]c2ccc(CCOc3ccnc(C4CC4)c3)cc12` [Compound 463]: the concentration giving a half-maximal response (EC50) lay in the range of 5000 to 100000 nM.

Turning to `CC(=O)Nc1c[nH]c2ccc(CCOc3ccc(C4CCC4)cc3)cc12` [Compound 230, N-(5-(2-(4-cyclobutylphenoxy)ethyl)-1H-indol-3-yl)acetamide], the EC50 lay within 40 to 200 nM. `N#CC1CCC1C(=O)Nc1c[nH]c2ccc(OCc3ccc(C(F)(F)F)cc3)cc12` (stereo not drawn) [Compound 351, 2-cyano-N-(5-((4-(trifluoromethyl)benzyl)oxy)-1H-indol-3-yl)cyclobutane-1-carboxamide]: the EC50 was in the range of 200 to 1000 nM.

For orientation: EC50 means the concentration needed to bring the measured effect to its halfway point.

The values are drawn from patent US12503436B2, “Compounds and compositions for treating conditions associated with STING activity” (NOVARTIS PHARMA AG, priority 2021, dated 2025).
